Read-outs that look alike come from different tables or passages of the source.

In general, half-life refers to the time needed for the level to fall by half in the phase considered. A higher half-life goes with slow decline.

Data set [1] relates to cells. The data set is described as follows: ^14C-MTHF uptake after methotrexate treatment. It counts as cell-based. Particulars: methotrexate 24 h, then ^14C-MTHF 1 h.
Data set [2] concerns MIAPaCa, PANC1, H292, A549, SQ20B, Cal 27 and Fadu. In words: Uptake and retention in cancer cell lines (Example 3). The class given is cell-based.
Procedure: Additional studies were performed as described above using the following cell lines:
Pancreatic cancer - MIAPaCa and PANC1
Head and Neck cancer—SQ20B, Cal 27 and Fadu
A further data set concerns MIAPaCa tumor. The data set is described as follows: Animal studies with ^14C-MTHF, distribution of radioactivity. It counts as in vivo. Particulars: nude mice with MIAPaCa tumor; after one hour.
Data set [3] relates to cancerous cell lines. The data set is described as follows: Washout of label from cells / retention. It counts as cell-based, human. The procedure:
(§1) Washout of label from cells—After labeling cells grown in four plates as described before, one culture plate was processed and total incorporation was measure by liquid scintillation counter (LSC). This uptake was regarded as 100%. From the remaining three culture plates, medium was removed, cells were washed twice with cold PBS and then normal growth medium (5 mL) was added at 37° for 30 min. The radiotracer released in the medium after 30 min was counted by LSC in triplicate, and cells were replenished with fresh 5 mL medium for next 30 min washing. The release of radiotracer was followed up to 120 min. Measurement of cell growth rate-The cells were seeded at a density of 4×10^4 cells/cm^2 in each of four 6-cm (20 cm^2) plates containing 5 mL medium and placed in incubator maintained at the conditions described above. Once the cells were in log-phase (48 h post plating), two plates were processed to count the total cells. The average number of cells from these plates was regarded as pl. After next 24 h, the remaining two plates were processed, and the total cells were counted again (p2). The doubling time was then calculated by using formula
(§2) To examine the release of radioactivity from these cells, the ^14C-MTHF-loaded cells (after 2 hours uptake) were placed in fresh complete medium containing an excess of unlabeled folate at 37° C. The medium was replaced after every 30 min and the radiotracer released in the medium was measured by LSC. […] In case of cancerous cell lines, the release of the radiotracer was not more than 20%. After 30 min, the release of the radioactivity in the medium was slow and reached to the background value after two successive washings. After washing, the label retained in each cell line was determined and plotted in FIG. 6.

The next data set concerns normal cells. The data set is described as follows: Washout of label from cells / retention. It counts as cell-based, human. Here is the method:
as §1, §2

Data set [4] relates to HMEC.
The subject of data set [5] is hTERT-HME1.
In data set [6] the test system is MCF-10A.
In data set [7] the test system is FHC.
Data set [8] deals with cancerous cell lines.
Data set [9] deals with MCF-7.
The procedure of data set [10]:
Stability of MTHF in culture medium—Folate-free RPMI 1640 (Invitrogen), fortified with 10% Fetal bovine serum (FBS, Sigma, qualified) (1 mL) in an eppendorf tube (1.5 mL) was spiked with MTHF (10 nM-100 μM) containing ˜0.05 μCi (˜1×10^5 DPM) of ^14C-MTHF as a radiotracer, and incubated under normal culture conditions (see below) for 0, 5, 30, 60, and 120 min. […] The mixture was incubated at 30° C. for 15 min and then filtered through 10K MWCO filter to remove protein. A 100 μl filtrate was analyzed by HPLC to determine the amount of dTMP formed from MTHF. A zorbax column (4.6 mm×15 cm) was eluted with a gradient of 2% to 5% methanol in 100 mM potassium phosphate, pH 6 over 2 min. The isocratic elution at this composition was conducted for 3 min and then changed linearly to 50% methanol in next 5 min. The system was held at this composition for next 5 min, and then increased up to 95% methanol to clean the column. Under these conditions, dUMP was eluted at 3.2 min, dTMP eluted at 5.8 min and MTHF/DHF eluted at 16 min. Identification and quantitation of dTMP was accomplished by comparing the retention time and area under peak of the standard solutions of dTMP.
Stability of MTHF in culture medium—The stability of MTHF might limit its pharmaceutical use. […] The inventors therefore measured the stability of MTHF in culture medium. Concentrations of MTHF ranging from 10 nM to 100 μM, containing a fixed amount of radiotracer (C-14) were incubated in culture medium, under the conditions used for cell incorporation experiments. MTHF remaining in the medium at different time points was measured by quantitatively converting dUMP +^14C-MTHF to ^14C-dTMP by the ecTSase-catalyzed reaction. The amount of ^14C-dTMP formed was then analyzed by HPLC connected with radioactive flow detector (FIG. 2). Data were fitted to a single exponential decay. The analytical assay in which ^14C-MTHF is quantitatively converted to ^14C-dTMP was developed, tested, and used in many of our kinetic isotope effect measurements while studying TSase.

For data set [11], the system named is MDA-MB231.
Data set [12] has as its system HT-29.
Data set [13] concerns MCF-7. The data set is described as follows: Cell cycle analysis (propidium iodide, flow cytometry). It counts as cell-based, human. As to conditions: aphidicolin-arrested cells. Here is the method:
(§3) Cell cycle analysis—Cells in log phase at the same confluency used for uptake experiments or growth inhibited cells by aphidicolin treatment were harvested using trypsin and washed twice with cold PBS. The cells were suspended as 1×10^6/ml density in PBS and fixed with 70% ethanol at −20° C. The DNA content of the cells was stained with 1 mL of staining buffer containing propidium iodide (5 μg/ml), RNAse A (1 mg/ml), glucose (1 mg/ml) in PBS. The stained cells were filtered through 70 μm nylon strainer and then analyzed for DNA content on FASCan flow-cytometer (Becton Dickinson) using Flo-Jo software.
(§4) Cell cycle vs. MTHF uptake. Biosynthesis of DNA and its precursor bases increases during S-phase of the cell cycle. […] Unsynchronized cells, as used for labeling, were alcohol-fixed and the DNA stained with propidium iodide (PI). DNA content can be used as a proxy for determining cell cycle stage. The DNA content was then analyzed by FACSCAN flow cytometer and data were processed by using Facscaliber software. […] Alternatively, when the cells were treated with aphidicolin, an inhibitor of DNA polymerase-α, the proliferation index is reduced up to 4-fold. […] In another experiment, we treated cells with a chemotherapeutic agent (methotrexate) for 24 h and then incubated with ^14C-MTHF for 1 h and observed a 90-95% decline in uptake relative to cells not treated with methotrexate.
A general note: Flow cytometry measures light scatter and fluorescence of single cells or particles in a stream.

In data set [14] the test system is HT-29. The description is as above. As to conditions: aphidicolin-arrested cells. The class given is cell-based, human. The procedure:
as §3, §4

The test system of data set [15] is MDA-MB231. The data set is described as above. As to conditions: aphidicolin-arrested cells. The class given is cell-based, human. Here is the method: as §3, §4
Data set [16] concerns FHC. Described as above. It counts as cell-based, human. Particulars: aphidicolin-arrested cells. Here is the method:
as §3, §4

The test system of data set [17] is MCF-10A. The data set is described as above. It counts as cell-based, human. As to conditions: aphidicolin-arrested cells. The procedure:
as §3, §4

In data set [18] the test system is HMEC. Described as above. The class given is cell-based, human. As to conditions: aphidicolin-arrested cells. Here is the method: as §3, §4
Data set [19] deals with hTERT-HME1. The data set is described as above. It counts as cell-based, human. As to conditions: aphidicolin-arrested cells. The procedure: as §3, §4
For data set [20], the system named is cells. In words: Cell cycle analysis, aphidicolin-treated cells. Particulars: cells treated with aphidicolin. The class given is cell-based. The procedure: as §3, §4
Setting [21] is: first 30 min incubation in fresh medium after 2 hours uptake.
[22] abbreviates: normal growing cells, 20 μM MTHF with ^14C tracer.

Regarding `CN(Cc1cnc2nc(N)nc(N)c2n1)c1ccc(C(=O)N[C@@H](CCC(=O)O)C(=O)O)cc1` [methotrexate, reference compound], the “decline in ^14C-MTHF uptake relative to untreated cells” value in the data set with cells [1] is 90-95%. In [2] (small dose of MTX), the “effect of methotrexate on tracer uptake” value is reported as “uptake enhancement”.

Regarding `Nc1nc2c(c(=O)[nH]1)N1[14CH2]N(c3ccc(C(=O)N[C@@H](CCC(=O)O)C(=O)O)cc3)C[C@H]1CN2` [^14C-MTHF, [11-^14C]—(R)—N^5,N^10-methylene-5,6,7,8-tetrahydrofolate], the distribution of radioactivity/cell entry in the data set with MIAPaCa tumor was “most of the radioactivity/cell was in the tumor and kidney”. Further, the “label retained after washing (FIG. 6)” value is “retained the highest amount of tracer” in the data set with cancerous cell lines [3] (MDA-MB231, MCF7, hTERT, HT29, successive 30 min washes, 2 h) and “retained a much lower, near-background amount of label” with normal cells (non-cancer counterparts, successive 30 min washes, 2 h). Besides, the results for the release of radiotracer result with cancerous cell lines [3] (setting [21]) and with normal cells (setting [21]) were “not more than 20%” and over 50%, respectively.

In the case of “(R)—N^5,N^10-methylene-5,6,7,8-tetrahydrofolate [MTHF]”, the MTHF uptake in the data set with HMEC [4] (aphidicolin-arrested cells) is 1.23 ×10^−3/10^6 cells; with HMEC [4] (setting [22]) it was 5.98 ×10^−3/10^6 cells; in the data set on hTERT-HME1 [5] (aphidicolin-arrested cells) it was 5.74 ×10^−3/10^6 cells; with hTERT-HME1 [5] (setting [22]), 67.3 ×10^−3/10^6 cells; with MCF-10A [6] (aphidicolin-arrested cells), 2.34 ×10^−3/10^6 cells; in the data set on MCF-10A [6] (setting [22]) it was 7.79 ×10^−3/10^6 cells. Also, the MTHF uptake in the data set on FHC [7] (aphidicolin-arrested cells) is on record as 0.54 ×10^−3/10^6 cells; in the data set with FHC [7] (setting [22]), 0.94 ×10^−3/10^6 cells; in the data set on MCF-7 [9] (aphidicolin-arrested cells), 4.92 ×10^−3/10^6 cells; with MCF-7 [9] (setting [22]) it was 80.0 ×10^−3/10^6 cells; with MDA-MB231 [11] (aphidicolin-arrested cells) it was 3.45 ×10^−3/10^6 cells; with MDA-MB231 [11] (setting [22]) it was 81.3 ×10^−3/10^6 cells. For the same compound, the MTHF uptake is 3.82 ×10^−3/10^6 cells in the data set on HT-29 [12] (aphidicolin-arrested cells) and 48.9 ×10^−3/10^6 cells in the data set with HT-29 [12] (setting [22]). Besides, the “uptake in FHC cells (FIG. 4)” value in the data set on FHC [7] (20 μM MTHF) is on record as “not higher than background”. In addition, the “label uptake, cancerous versus non-cancerous control cell lines” value with cancerous cell lines [8] (HEMC-hTERT, MCF7 and MDA-MB231 versus HMEC, MCF10A, 20 μM MTHF) was “more than 3 fold”. For the same compound, the “time at which uptake of label reached a maximum level” value in the data set on cancerous cell lines [8] (cancerous cell lines, steady state) is 60 min. In addition, the “uptake and retention of the radioactivity” value in data set [2] (pancreatic, lung, head and neck cancer cell lines) is “good uptake and retention”. Moreover, the “rate of decomposition kdec” value in data set [10] (10 nM MTHF in culture medium) came to 0.00121 s⁻¹; in [10] (100 μM MTHF in culture medium), 3.23e-05 s⁻¹. This compound also registered a half-life in data set [10] (20 μM MTHF in culture medium) of 1.3 h. The “stability of MTHF (time)” value in data set [10] (100 μM MTHF in culture medium) is on record as “up to 330 min”. The “uptake, HT29 versus normal FHC cells” value in the data set on HT-29 [12] (colon cancer HT29 versus FHC, 20 μM MTHF) is given as “at least 30 times”.

For `C[C@@]1(CO)[C@H](O)CC[C@@]2(C)[C@H]1CC[C@H]1C[C@@H]3C[C@@]12CC[C@]3(O)CO` [aphidicolin], the “Proliferation index (S + G2M)” value in the data set with MCF-7 [13] turned out to be 5%; with HT-29 [14], 6%; in the data set with MDA-MB231 [15], 6%; with FHC [16] it was 3%; with MCF-10A [17], 3%; in the data set with HMEC [18], 4%. Besides, the “Proliferation index (S + G2M)” value with hTERT-HME1 [19] stood at 6%. For the same compound, the “reduction of proliferation index” value with cells [20] is reported as “up to 4 fold”.

The values above are taken from patent publication US20130034496A1, “POSITRON EMISSION TOMOGRAPHY TRACER” (UNIVERSITY OF IOWA RESEARCH FOUNDATION, priority 2011, published 2013).
